In PMC6742494 (ACS infectious diseases, 2016):
≈ marks a conversion by molar mass, not a printed value. Where “and” joins values, the source holds several entries; their conditions need not be identical. Identical values can stand only once.

How the values were obtained:
[1] = tested on: Mtb H37Rv resistant isolates with mmpL3 mutations; assay type: cell-based, Mycobacterium tuberculosis
[2] = tested on: Mtb Haarlem 9 (RIF-resistant); assay: microbe, parasite or virus in culture; assay type: cell-based; settings: Mycobacterium tuberculosis
[3] = tested on: Mtb Beijing 22 (RIF-resistant); assay: microbe, parasite or virus in culture; assay type: cell-based; settings: Mycobacterium tuberculosis
Mtb T 27 (INH-resistant) = assay: microbe, parasite or virus in culture; assay type: cell-based; settings: Mycobacterium tuberculosis

SMILES	MIC [1]	susceptibility of DA5^R and TBL-140^R strains [1]	MIC [2] [µg/mL]	MIC [3] [µg/mL]	MIC (Mtb T 27 (INH-resistant)) [µg/mL]
CC(C)=CCC/C(C)=C/CNCCNC1C2CC3CC(C2)CC1C3 (centres unmarked) [SQ109]	6.25 µg/mL and 12.5 µg/mL	–	–	–	–
CC[C@@H](CO)NCCN[C@@H](CC)CO [EMB, ethambutol]	–	identical susceptibility as wild-type H37Rv	1 (≈ 4.89 µM)	1 (≈ 4.89 µM)	1 (≈ 4.89 µM)
NNC(=O)c1ccncc1 [INH, isoniazid]	–	identical susceptibility as wild-type H37Rv	0.025 (≈ 0.182 µM)	0.025 (≈ 0.182 µM)	> 0.8
FC(F)(F)Oc1ccc(Oc2ccc(CNCCNC3C4CC5CC(C4)CC3C5)cc2)cc1 (centres unmarked) [Compound 8, N^1-adamantan-2-yl-N^2-(4-(4-(trifluoro-methoxy)phenoxy)benzyl)ethane-1,2-diamine]	–	–	1.2 (≈ 2.61 µM)	1.2 (≈ 2.61 µM)	0.58 (≈ 1.26 µM)
CO[C@H]1/C=C/O[C@@]2(C)Oc3c(C)c(O)c4c(O)c(c(/C=N/N5CCN(C)CC5)c(O)c4c3C2=O)NC(=O)/C(C)=C\C=C\[C@H](C)[C@H](O)[C@@H](C)[C@@H](O)[C@@H](C)[C@H](OC(C)=O)[C@@H]1C [RIF, rifampicin]	–	identical susceptibility as wild-type H37Rv	–	–	0.0125 (≈ 0.0152 µM)
